# Measurements reported in patent US12502414B2, “Second generation Seneca Valley virus oncolytic therapy: compositions and methods thereof” (SENECA THERAPEUTICS, INC., priority 2019, dated 2025).
# Entries after “also recorded” stand apart in the source; their conditions may differ.
# Tests used:
# [1] = test system: SVV replication in HeLa cells; assay: SVV replication in Tem 8+ HeLa cells, virus yield by plaque assay; assay type: cell-based
# Protocol: FIG. 2A. SVV replication in HeLa cells can be enhanced with staurosporine (SSP). FIG. 2B. Inhibition of SVV replication by IFN-α can be reversed with SSP in Per.C6 cells. TEM 8+ HeLa cells or Per.C6 cells were pretreated with 500 units IFN-α before infection with SVV at MOI 1. 300 nM SSP was added at time 0. Virus yields determined by plaque assay 24 h post infection. Results are representative of three independent experiments.
# FIGS. 3A-3B are series of histogram depicting the effect of Trichostatin A on SVV replication. FIG. 3A. SVV replication in HeLa cells can be enhanced with Trichostatin A. FIG. 3B. Inhibition of SVV replication by IFN-α can be reversed with Trichostatin A in Per.C6 cells. TEM 8+ HeLa cells or Per.C6 cells were pretreated with 500 units IFN-α before infection with SVV at MOI 1. 1 μM Trichostatin A was added at time 0. Virus yields determined by plaque assay 24 h post infection. Results are representative of three independent experiments.
# FIGS. 4A-4B are series of histogram depicting the effect of Torin 2 A on SVV replication. FIG. 4A. SVV replication in HeLa cells can be enhanced with Torin 2 A. FIG. 4B. Inhibition of SVV replication by IFN-α can be reversed with Torin 2 in Per.C6 cells. TEM 8+ HeLa cells or Per.C6 cells were pretreated with 500 units IFN-α before infection with SVV at MOI 1. 2 μM Torin 2 was added at time −30 min. Virus yields determined by plaque assay 24 h post infection. Results are representative of three independent experiments.
# Cells and viruses. Cells were maintained in DMEM supplemented with 10% fetal bovine serum (Per.C6) or 10% bovine serum (HeLa), 2 mM L-glutamine (Invitrogen), and 1% penicillin-streptomycin. Viral stocks were produced by growth in Per.C6 cells as previously described (23).
# Cytokines and Inhibitors. IFN-α and Trichostatin A were purchased from Sigma, Inc. (St. Louis, MO). […] All compounds were dissolved in DMSO.
# Virus infections. Infections were performed in 35 mm dishes. Cells were counted at the time of infection and viral stocks were diluted in PBS+0.01% BSA (Sigma, St. Louis, MO) for infections at the appropriate MOI. One hundred microliters of diluted virus were used to infect each plate at 37° C. for 45 min with rocking. Cells were then washed twice with PBS and covered with 1 mL of appropriate media; samples taken at this time are called 0 time point. Mock infected cells were treated with PBS+0.01% BSA instead of virus. Three independent infections were done.
# Plaque assays. […]
# Removal of acetyl moieties from histones is catalyzed by enzymes known as histone deacetylases (HDACs) and leads to […]. […] Sixteen hours after infection virus yields were determined by plaque assay (FIG. 3A). […]
# [2] = test system: SVV replication in Per.C6 cells; assay: SVV replication in Per.C6 cells with or without IFN-α pretreatment, virus yield by plaque assay; assay type: cell-based, human; settings: Per.C6 cells pretreated with 500 units IFN-α
# Protocol: Per.C6 cells were pretreated with 500 units IFN-α before infection with SVV at MOI=1. Virus yields were determined by plaque assay 24 h post infection.
# Plaque assays. Samples for virus titration were produced by harvesting cells and medium, followed by three cycles of freezing and thawing and then by centrifugation at 5000×g for 5 min. All titrations were done on monolayers of Per.C6 cells in 35 mm plates. Ten-fold serial dilutions of virus were made in PBS+0.1 mg/ml BSA (Sigma) and 0.1 mL of each dilution was added per well. Plates were incubated at 37° C. for 45 min with rocking and overlay was then added. A two-overlay system was used. […] Plaque assays were incubated for 72 hrs at 37° C. Cells were then fixed with 10% TCA (Sigma) and stained with 0.1% crystal violet (Sigma) in 20% ethanol.
molecule,measurement,setting,value
CN[C@@H]1C[C@H]2O[C@@](C)([C@@H]1OC)n1c3ccccc3c3c4c(c5c6ccccc6n2c5c31)C(=O)NC4 [staurosporine],production of infectious SVV (virus yields by plaque assay),"[1]; Tem 8+ HeLa cells, SVV MOI 1, 300 nM SSP added at time 0, 24 h post infection",increased production of infectious SVV
Nc1ccc(-c2ccc3ncc4ccc(=O)n(-c5cccc(C(F)(F)F)c5)c4c3c2)cn1 [Torin 2],enhanced SVV replication by Torin 2 in the presence of IFN-α,"[1]; HeLa cells pretreated with 500 units IFN-α, 2 μM Torin 2 at −30 min, SVV MOI 1, 24 h post infection",not reduced in the presence of IFN-α
same,SVV yields (plaque assay),"[1]; semi-permissive HeLa cells, SVV MOI 1, 2 μM Torin 2 added at time −30 min, 24 h post infection",substantially increased SVV yields
same,SVV replication in the presence of IFN-α,"[2]; 2 μM Torin 2 at −30 min, SVV MOI 1, 24 h post infection",promoted SVV replication
IFN-α,production of infectious SVV (virus yields by plaque assay),"[2]; SVV MOI 1, 24 h post infection",significantly reduced production of infectious SVV; also recorded: reduced virus yields
CC(/C=C/C(=O)NO)=C\[C@@H](C)C(=O)c1ccc(N(C)C)cc1 [Trichostatin A],SVV infection of non-permissive HeLa cells (virus yields by plaque assay),"[1]; HeLa cells grown with Trichostatin A for 24 hours before infection, yields sixteen hours after infection (legend: 1 μM at time 0, 24 h)",more efficient
same,effect on inhibition of SVV replication by IFN-α,"[2]; SVV MOI 1, 1 μM Trichostatin A added at time 0, 24 h post infection",reversed the inhibitory effect of IFN-α on SVV replication
